Experimental data as given in the NIST ThermoML archive (doi:10.1021/je060222y).
Several values for one entry are separate records, joined by “and”; a condition that tells them apart may be missing. Equal entries are not always repeated. ± gives the expanded uncertainty stated by the source.

How the values were obtained:
[1] = for mass density: 101.33 kPa, Liquid; for Triple point temperature: Crystal
[2] = molar heat capacity at constant pressure; conditions: 101.33 kPa, Liquid, Small sample (50 mg) DSC
[3] = Molar enthalpy of transition or fusion; conditions: Crystal

SMILES | mass density ([1]; 283.15 K) | mass density ([1]; 288.15 K) | mass density ([1]; 293.15 K) | mass density ([1]; 298.15 K) | mass density ([1]; 303.15 K) | mass density ([1]; 308.15 K) | mass density ([1]; 313.15 K) | mass density ([1]; 318.15 K) | mass density ([1]; 323.15 K) | Triple point temperature [1] | molar heat capacity at constant pressure ([2]; 283.15 K) | molar heat capacity at constant pressure ([2]; 288.15 K) | molar heat capacity at constant pressure ([2]; 293.15 K) | molar heat capacity at constant pressure ([2]; 298.15 K) | molar heat capacity at constant pressure ([2]; 303.15 K) | molar heat capacity at constant pressure ([2]; 308.15 K) | molar heat capacity at constant pressure ([2]; 313.15 K) | molar heat capacity at constant pressure ([2]; 318.15 K) | molar heat capacity at constant pressure ([2]; 323.15 K) | further results
CCCC[n+]1ccn(C)c1.O=S(=O)([N-]S(=O)(=O)C(F)(F)F)C(F)(F)F | 1450.16 ± 1.7 kg/m3 and 1448.52 ± 1.7 kg/m3 | 1445.33 ± 1.7 kg/m3 and 1443.69 ± 1.7 kg/m3 | 1440.51 ± 1.7 kg/m3 and 1438.89 ± 1.6 kg/m3 | 1435.73 ± 1.7 kg/m3 and 1434.1 ± 1.6 kg/m3 | 1430.94 ± 1.7 kg/m3 and 1429.31 ± 1.6 kg/m3 | 1426.17 ± 1.6 kg/m3 and 1424.54 ± 1.6 kg/m3 | 1421.4 ± 1.6 kg/m3 and 1419.78 ± 1.6 kg/m3 | 1416.66 ± 1.6 kg/m3 and 1415.04 ± 1.6 kg/m3 | 1411.94 ± 1.6 kg/m3 and 1410.31 ± 1.6 kg/m3 | 268.51 ± 0.77 K and 267.61 ± 0.77 K | 558.99 ± 8.7 J/K/mol and 559.63 ± 8.7 J/K/mol | 561.29 ± 8.7 J/K/mol and 562.05 ± 8.7 J/K/mol | 564.02 ± 8.7 J/K/mol and 564.58 ± 8.8 J/K/mol | 566.47 ± 8.8 J/K/mol and 567.33 ± 8.8 J/K/mol | 569.01 ± 8.8 J/K/mol and 569.74 ± 8.8 J/K/mol | 572.11 ± 8.9 J/K/mol and 572.82 ± 8.9 J/K/mol | 575.03 ± 8.9 J/K/mol and 575.56 ± 8.9 J/K/mol | 577.84 ± 8.9 J/K/mol and 578.49 ± 9 J/K/mol | 581.06 ± 9 J/K/mol and 581.68 ± 9 J/K/mol | mass density ([1]; 278.15 K): 1454.98 ± 1.7 kg/m3 and 1453.33 ± 1.7 kg/m3; mass density ([1]; 328.15 K): 1407.23 ± 1.6 kg/m3 and 1405.6 ± 1.6 kg/m3; mass density ([1]; 333.15 K): 1402.55 ± 1.6 kg/m3 and 1400.92 ± 1.5 kg/m3; molar heat capacity at constant pressure ([2]; 328.15 K): 584.36 ± 9.1 J/K/mol and 584.82 ± 9.1 J/K/mol; Molar enthalpy of transition or fusion [3]: 5.36 kcal/mol and 5.86 kcal/mol
CCCCn1cc[n+](C)c1.F[P-](F)(F)(F)(F)F [1-butyl-3-methylimidazolium hexafluorophosphate] | 1379.14 ± 1.5 kg/m3 | 1374.83 ± 1.4 kg/m3 | 1370.43 ± 1.4 kg/m3 | 1366.12 ± 1.4 kg/m3 | 1361.76 ± 1.4 kg/m3 | 1357.52 ± 1.4 kg/m3 | 1353.35 ± 1.4 kg/m3 | 1349.16 ± 1.4 kg/m3 | 1345.02 ± 1.4 kg/m3 | 280.03 ± 0.77 K | 400.9 ± 6.2 J/K/mol | 402.32 ± 6.2 J/K/mol | 404.97 ± 6.3 J/K/mol | 407.66 ± 6.3 J/K/mol | 410.33 ± 6.4 J/K/mol | 413.14 ± 6.4 J/K/mol | 415.98 ± 6.4 J/K/mol | 418.91 ± 6.5 J/K/mol | 421.88 ± 6.5 J/K/mol | Molar enthalpy of transition or fusion ([3]; DSC): 4.76 ± 0.139 kcal/mol
